Assay results reported in patent publication US20260007601A1, “IONIZABLE CATIONIC LIPID COMPOUND AND COMPOSITION FOR DELIVERING NUCLEIC ACID AND USE THEREOF” (BEIJING YOUCAREKECHUANG PHARMACEUTICAL TECHNOLOGY CO., LTD., priority 2023, published 2026).
Where “and” joins values, the source holds several entries; their conditions need not be identical. Equal values may be shown once.

Key:
293T cells [1] = assay: Cell survival rate assay (CCK-8); format: cell-based
Summary of the method: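 293T cells seeded at 10,000 per well and grown overnight, then exposed for 24 h to LNPs (cationic/neutral/structured/PEG lipids 49:10:39.5:1.5) carrying 1.5 μg Fluc-mRNA, or Lipofectamine 3000. Viability read by CCK-8, 1 h incubation, absorbance at 450 nm.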

293T cells [2] = assay: Fluorescence detection of Fluc-mRNA (cell transfection efficiency of LNP formulations); format: cell-based
Summary of the method: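 293T cells at 10,000 per well, adhered overnight, then given LNPs carrying 0.3 μg Fluc-mRNA (cationic:neutral:structured:polymer-conjugated lipid 49:10:39.5:1.5 molar). After 24 h, luciferase signal read with luciferase kit reagents on an IVIS imaging system as transfection efficiency.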

CCCCCCCCC(CCCCCCCC)COC(=O)CCCCCN(CCCCCC(=O)OCC(CCCCCCCC)CCCCCCCC)CCN(C)CCO [YK-209, bis(2-octyldecyl)-6,6′-((2-(2-hydroxyethyl(methyl)amino)ethyl)azadialkyl)dihexanoate]
Cell survival rate (293T cells [1]; LNP containing 1.5 μg Fluc-mRNA, 24 hours, CCK-8): 76.69%
cell survival rate higher (cytotoxicity reduced) compared with YK-221 (293T cells [1]; difference of rates): 55% and 55.74%
cell survival rate higher (toxicity lower) than that of YK-204 (293T cells [1]; difference of rates): 34.12%
cell survival rate higher (toxicity lower) than that of YK-225 (293T cells [1]; difference of rates): 30% and 33.28%
cell survival rate higher than that of ALC-0315 (293T cells [1]; difference of rates): 26.73%
cell survival rate higher than that of HHMA (293T cells [1]; difference of rates): 11.13%
cell survival rate higher than that of Lipofectamine 3000 (293T cells [1]; difference of rates): 53.64%
cell survival rate higher than that of SM-102 (293T cells [1]; difference of rates): 8.14%
cell survival rate higher than that of YK-203 (293T cells [1]; difference of rates): 41.13%
cell survival rate higher than that of YK-205 (293T cells [1]; difference of rates): 17.77%
cell survival rate higher than that of YK-208 (293T cells [1]; difference of rates): 30.01%
cell survival rate higher than that of YK-210 (293T cells [1]; difference of rates): 38.31%
cell survival rate higher than that of YK-211 (293T cells [1]; difference of rates): 24.39%
cell survival rate higher than that of YK-212 (293T cells [1]; difference of rates): 41.43%
cell survival rate higher than that of YK-213 (293T cells [1]; difference of rates): 35.25%
cell survival rate higher than that of YK-214 (293T cells [1]; difference of rates): 51.11% and 50%
cell survival rate higher than that of YK-215 (293T cells [1]; difference of rates): 32.10%
cell survival rate higher than that of YK-216 (293T cells [1]; difference of rates): 30.89%
cell survival rate higher than that of YK-217 (293T cells [1]; difference of rates): 34.42%
cell survival rate higher than that of YK-219 (293T cells [1]; difference of rates): 18.08%
cell survival rate higher than that of YK-220 (293T cells [1]; difference of rates): 17.70%
cell survival rate higher than that of YK-222 (293T cells [1]; difference of rates): 42.94%
cell survival rate higher than that of YK-223 (293T cells [1]; difference of rates): 40.05%
cell survival rate higher than that of YK-224 (293T cells [1]; difference of rates): 53.22%
cell survival rate higher than that of YK-226 (293T cells [1]; difference of rates): 48.79%
cell survival rate higher than that of compound 21 (293T cells [1]; difference of rates): 7.67%
cell survival rate higher than that of compound 23 (293T cells [1]; difference of rates): 6.59%
RLU / cell transfection efficiency, times that of ALC-0315 (293T cells [2]; Fluc-mRNA LNP): 12.51 times
RLU / cell transfection efficiency, times that of HHMA (293T cells [2]; Fluc-mRNA LNP): 12.79 times
RLU / cell transfection efficiency, times that of Lipofectamine 3000 (293T cells [2]; Fluc-mRNA LNP): 22.36 times
RLU / cell transfection efficiency, times that of YK-009 (293T cells [2]; Fluc-mRNA LNP): 5.24 times
RLU / cell transfection efficiency, times that of compound 21 (293T cells [2]; Fluc-mRNA LNP): 18.90 times
RLU / cell transfection efficiency, times that of compound 23 (293T cells [2]; Fluc-mRNA LNP): 20.17 times
cell transfection efficiency, times that of YK-223 (293T cells [2]; Fluc-mRNA LNP): 280.74 times
cell transfection efficiency, times that of YK-224 (293T cells [2]; Fluc-mRNA LNP): 239.25 times
cell transfection efficiency, times that of YK-226 (293T cells [2]; Fluc-mRNA LNP): 365.22 times
fluorescence absorption value / cell transfection efficiency, times that of YK-203 (293T cells [2]; Fluc-mRNA LNP): 5.44 times
fluorescence absorption value / cell transfection efficiency, times that of YK-204 (293T cells [2]; Fluc-mRNA LNP): 57 times and 57.85 times
fluorescence absorption value / cell transfection efficiency, times that of YK-205 (293T cells [2]; Fluc-mRNA LNP): 20.46 times
fluorescence absorption value / cell transfection efficiency, times that of YK-208 (293T cells [2]; Fluc-mRNA LNP): 5.46 times
fluorescence absorption value / cell transfection efficiency, times that of YK-210 (293T cells [2]; Fluc-mRNA LNP): 4.55 times
fluorescence absorption value / cell transfection efficiency, times that of YK-211 (293T cells [2]; Fluc-mRNA LNP): 15.37 times
fluorescence absorption value / cell transfection efficiency, times that of YK-212 (293T cells [2]; Fluc-mRNA LNP): 5.39 times
fluorescence absorption value / cell transfection efficiency, times that of YK-213 (293T cells [2]; Fluc-mRNA LNP): 15.43 times
fluorescence absorption value / cell transfection efficiency, times that of YK-214 (293T cells [2]; Fluc-mRNA LNP): 4.60 times
fluorescence absorption value / cell transfection efficiency, times that of YK-215 (293T cells [2]; Fluc-mRNA LNP): 21.46 times
fluorescence absorption value / cell transfection efficiency, times that of YK-216 (293T cells [2]; Fluc-mRNA LNP): 9.24 times
fluorescence absorption value / cell transfection efficiency, times that of YK-217 (293T cells [2]; Fluc-mRNA LNP): 293.09 times
fluorescence absorption value / cell transfection efficiency, times that of YK-218 (293T cells [2]; Fluc-mRNA LNP): 34.69 times
fluorescence absorption value / cell transfection efficiency, times that of YK-219 (293T cells [2]; Fluc-mRNA LNP): 13.98 times
fluorescence absorption value / cell transfection efficiency, times that of YK-220 (293T cells [2]; Fluc-mRNA LNP): 97.32 times
fluorescence absorption value, times that of YK-222 (293T cells [2]; Fluc-mRNA LNP): 34.73 times
Multiples of values that equivalent to YK-209 (293T cells [2]; RLU of YK-209 / RLU of the named lipid): 1.00
